For the first assay, the target named is T1, ER (Homo sapiens, UniProt P03372).
T1 construct: host or cells: T47D and MCF7 human breast cancer cells
T1 sequence (P03372 1-595): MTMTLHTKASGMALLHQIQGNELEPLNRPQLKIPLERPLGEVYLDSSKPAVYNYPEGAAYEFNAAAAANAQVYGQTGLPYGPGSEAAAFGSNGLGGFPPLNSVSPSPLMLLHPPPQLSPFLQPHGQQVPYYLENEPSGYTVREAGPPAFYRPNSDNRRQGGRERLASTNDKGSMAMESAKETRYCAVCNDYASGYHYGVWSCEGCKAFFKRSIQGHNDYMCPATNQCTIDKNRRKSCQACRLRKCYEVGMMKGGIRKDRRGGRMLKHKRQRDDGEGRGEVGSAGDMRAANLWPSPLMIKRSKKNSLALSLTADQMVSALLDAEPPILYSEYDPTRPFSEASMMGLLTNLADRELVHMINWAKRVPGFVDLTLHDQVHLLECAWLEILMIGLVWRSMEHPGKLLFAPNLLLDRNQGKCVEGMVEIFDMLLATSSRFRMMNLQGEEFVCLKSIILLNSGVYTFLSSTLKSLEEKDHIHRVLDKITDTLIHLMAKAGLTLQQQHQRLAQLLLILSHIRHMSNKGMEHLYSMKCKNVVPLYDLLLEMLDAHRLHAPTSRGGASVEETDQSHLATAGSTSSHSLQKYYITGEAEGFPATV
Kind of assay: ER degradation activity, in-cell western blot analysis in T47D cells. The format is cell-based. Particulars: 16 hours, Table A does not say which cell line (T47D or MCF7), read-out: Potency (DC50). A digest of the protocol:
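ER protein remaining after 16 h compound exposure is quantified in T47D cells by in-cell western, with a no-primary-antibody background control. Values are percentages of DMSO-treated signal.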
The DC50 is the concentration at which degradation of the target reaches its halfway point. For `O=C1CCC(N2C(=O)c3cc4c(cc3C2=O)CN(CC(=O)N2CCC3(CC2)CCN(c2ccc([C@@H]5c6ccc(O)cc6CC[C@@H]5c5ccccc5)cc2)CC3)C4)C(=O)N1` (stereo partly drawn) [E 149, 2-(2,6-dioxopiperidin-3-yl)-6-(2-(9-(4-((1R,2S)-6-hydroxy-2-phenyl-1,2,3,4-tetrahydronaphthalen-1-yl)phenyl)-3,9-diazaspiro[5.5]undecan-3-yl)-2-oxoethyl)-6,7-dihydropyrrolo[3,4-f]isoindole-1,3(2H,5H)-dione], the DC50 was less than 0.01 µM.

`C[C@@H]1Cc2c([nH]c3ccccc23)[C@@H](c2c(F)cc(N3CC(CC(=O)N4Cc5cc6c(cc5C4)C(=O)N(C4CCC(=O)NC4=O)C6)C3)cc2F)N1CC(F)F` (stereo partly drawn) [E 102, 3-(6-(2-(1-(4-((1R,3R)-2-(2,2-difluoroethyl)-3-methyl-2,3,4,9-tetrahydro-1H-pyrido[3,4-b]indol-1-yl)-3,5-difluorophenyl)azetidin-3-yl)acetyl)-1-oxo-3,5,6,7-tetrahydropyrrolo[3,4-f]isoindol-2(1H)-yl)piperidine-2,6-dione]: the DC50 is more than 0.1 µM.

With `C[C@@H]1Cc2c([nH]c3ccccc23)[C@@H](c2c(F)cc(N3CCC(C(=O)N4CCC(N5Cc6cc7c(cc6C5)C(=O)N(C5CCC(=O)NC5=O)C7=O)CC4)CC3)cc2F)N1CC(C)(F)F` (stereo partly drawn) [E 252, 6-(1-(1-(4-((1R,3R)-2-(2,2-difluoropropyl)-3-methyl-2,3,4,9-tetrahydro-1H-pyrido[3,4-b]indol-1-yl)-3,5-difluorophenyl)piperidine-4-carbonyl)piperidin-4-yl)-2-(2,6-dioxopiperidin-3-yl)-6,7-dihydropyrrolo[3,4-f]isoindole-1,3(2H,5H)-dione], the DC50 was less than 0.01 µM.

For `C[C@@H]1Cc2cc(O)ccc2[C@@H](c2c(F)cc(N3CCC4(CCN(CC(=O)N5Cc6cc7c(cc6C5)C(=O)N(C5CCC(=O)NC5=O)C7)C4)C3)cc2F)N1CC(C)(F)F` (stereo partly drawn) [E 32, 3-(6-(2-(7-(4-((1S,3R)-2-(2,2-difluoropropyl)-6-hydroxy-3-methyl-1,2,3,4-tetrahydroisoquinolin-1-yl)-3,5-difluorophenyl)-2,7-diazaspiro[4.4]nonan-2-yl)acetyl)-1-oxo-3,5,6,7-tetrahydropyrrolo[3,4-f]isoindol-2(1H)-yl)piperidine-2,6-dione], the DC50 is more than 0.1 µM.

For the compound `O=C1CCC(N2C(=O)c3cc4c(cc3C2=O)CN(CC(=O)N2CC3(C2)CN(c2ccc([C@@H]5c6ccc(O)cc6CC[C@@H]5c5ccccc5)cc2)C3)C4)C(=O)N1` (mixture of isomers) [E 8, 2-(2,6-dioxopiperidin-3-yl)-6-(2-(6-(4-((1R,2S)-6-hydroxy-2-phenyl-1,2,3,4-tetrahydronaphthalen-1-yl)phenyl)-2,6-diazaspiro[3.3]heptan-2-yl)-2-oxoethyl)-6,7-dihydropyrrolo[3,4-f]isoindole-1,3(2H,5H)-dione], the DC50 fell in the range of 0.01 to 0.1 µM.

Turning to `C[C@@H]1Cc2c([nH]c3ccccc23)[C@@H](c2c(F)cc(N3CCC4(CCN(C(=O)CN5Cc6cc7c(cc6C5)C(=O)N(C5CCC(=O)NC5=O)C7=O)CC4)CC3)cc2F)N1CC(C)(F)F` (stereo partly drawn) [E 253, 6-(2-(9-(4-((1R,3R)-2-(2,2-difluoropropyl)-3-methyl-2,3,4,9-tetrahydro-1H-pyrido[3,4-b]indol-1-yl)-3,5-difluorophenyl)-3,9-diazaspiro[5.5]undecan-3-yl)-2-oxoethyl)-2-(2,6-dioxopiperidin-3-yl)-6,7-dihydropyrrolo[3,4-f]isoindole-1,3(2H,5H)-dione], the DC50 is less than 0.01 µM.

Turning to `C[C@@H]1Cc2c([nH]c3ccccc23)[C@@H](c2c(F)cc(C3CCC(C(=O)N4CCC(N5Cc6cc7c(cc6C5)C(=O)N(C5CCC(=O)NC5=O)C7)CC4)CC3)cc2F)N1CC(F)F` (stereo partly drawn) [E 307, 3-(6-(1-(4-(4-((1R,3R)-2-(2,2-difluoroethyl)-3-methyl-2,3,4,9-tetrahydro-1H-pyrido[3,4-b]indol-1-yl)-3,5-difluorophenyl)cyclohexane-1-carbonyl)piperidin-4-yl)-1-oxo-3,5,6,7-tetrahydropyrrolo[3,4-f]isoindol-2(1H)-yl)piperidine-2,6-dione], the DC50 is less than 0.01 µM.

For `C[C@@H]1Cc2c([nH]c3ccccc23)[C@@H](c2c(F)cc(N3CCC(CN4CC(N5Cc6cc7c(cc6C5)C(=O)N(C5CCC(=O)NC5=O)C7)C4)CC3)cc2F)N1CC(F)F` (stereo partly drawn) [E 52, 3-(6-(1-((1-(4-((1R,3R)-2-(2,2-difluoroethyl)-3-methyl-2,3,4,9-tetrahydro-1H-pyrido[3,4-b]indol-1-yl)-3,5-difluorophenyl)piperidin-4-yl)methyl)azetidin-3-yl)-1-oxo-3,5,6,7-tetrahydropyrrolo[3,4-f]isoindol-2(1H)-yl)piperidine-2,6-dione], the 50% degradation concentration (DC50) was less than 0.01 µM.

Take `O=C1CCC(N2C(=O)c3cc4c(cc3C2=O)CN(C2CCC(CN3CCN(c5ccc([C@@H]6c7ccc(O)cc7CC[C@@H]6c6ccccc6)cc5)CC3)CC2)C4)C(=O)N1` (stereo partly drawn) [E 290, 2-(2,6-dioxopiperidin-3-yl)-6-(4-((4-(4-((1R,2S)-6-hydroxy-2-phenyl-1,2,3,4-tetrahydronaphthalen-1-yl)phenyl)piperazin-1-yl)methyl)cyclohexyl)-6,7-dihydropyrrolo[3,4-f]isoindole-1,3(2H,5H)-dione]: the DC50 was 0.01 to 0.1 µM.

For `O=C1CCC(N2C(=O)c3cc4c(cc3C2=O)CN(C(=O)CN2CCC3(CC2)CCN(c2ccc([C@@H]5c6ccc(B(O)O)cc6CC[C@@H]5c5ccccc5)cc2)CC3)C4)C(=O)N1` (mixture of isomers) [E 181, Rac-((5R,6S)-5-(4-(9-(2-(6-(2,6-dioxopiperidin-3-yl)-5,7-dioxo-3,5,6,7-tetrahydropyrrolo[3,4-f]isoindol-2(1H)-yl)-2-oxoethyl)-3,9-diazaspiro[5.5]undecan-3-yl)phenyl)-6-phenyl-5,6,7,8-tetrahydronaphthalen-2-yl)boronic acid], the DC50 is more than 0.1 µM.

For `O=C1CCC(N2Cc3cc4c(cc3C2=O)CN(CC(=O)N2CCC3(CCN(c5ccc([C@@H]6c7ccc(O)cc7CC[C@@H]6c6ccccc6)cc5)CC3)C2)C4)C(=O)N1` (mixture of isomers) [E 4, rac-3-(6-(2-(8-(4-((1R,2S)-6-hydroxy-2-phenyl-1,2,3,4-tetrahydronaphthalen-1-yl)phenyl)-2,8-diazaspiro[4.5]decan-2-yl)-2-oxoethyl)-1-oxo-3,5,6,7-tetrahydropyrrolo[3,4-f]isoindol-2(1H)-yl)piperidine-2,6-dione], the DC50 lay within 0.01 to 0.1 µM.

With `C[C@@H]1Cc2c([nH]c3ccccc23)[C@@H](c2c(F)cc(-c3ncc(C(=O)N4CCC(N5Cc6cc7c(cc6C5)C(=O)N(C5CCC(=O)NC5=O)C7=O)CC4)cn3)cc2F)N1CC(F)F` (stereo partly drawn) [E 346, 6-(1-(2-(4-((1R,3R)-2-(2,2-difluoroethyl)-3-methyl-2,3,4,9-tetrahydro-1H-pyrido[3,4-b]indol-1-yl)-3,5-difluorophenyl)pyrimidine-5-carbonyl)piperidin-4-yl)-2-(2,6-dioxopiperidin-3-yl)-6,7-dihydropyrrolo[3,4-f]isoindole-1,3(2H,5H)-dione], the half-maximal degradation concentration (DC50) was less than 0.01 µM.

Take `C[C@@H]1Cc2c([nH]c3ccccc23)[C@@H](c2c(F)cc(N3CCC(CN4CCC(CN5Cc6cc7c(cc6C5)C(=O)N(C5CCC(=O)NC5=O)C7=O)CC4)CC3)cc2F)N1CC(F)F` (stereo partly drawn) [E 128, 6-((1-((1-(4-((1R,3R)-2-(2,2-difluoroethyl)-3-methyl-2,3,4,9-tetrahydro-1H-pyrido[3,4-b]indol-1-yl)-3,5-difluorophenyl)piperidin-4-yl)methyl)piperidin-4-yl)methyl)-2-(2,6-dioxopiperidin-3-yl)-6,7-dihydropyrrolo[3,4-f]isoindole-1,3(2H,5H)-dione]: the DC50 was less than 0.01 µM.

As to `O=C1CCC(N2C(=O)c3cc4c(cc3C2=O)CN(CC2CN(C(=O)C3CN(c5ccc([C@@H]6c7ccc(O)cc7CC[C@@H]6c6ccccc6)cc5)C3)C2)C4)C(=O)N1` (stereo partly drawn) [E 200, 2-(2,6-dioxopiperidin-3-yl)-6-((1-(1-(4-((1R,2S)-6-hydroxy-2-phenyl-1,2,3,4-tetrahydronaphthalen-1-yl)phenyl)azetidine-3-carbonyl)azetidin-3-yl)methyl)-6,7-dihydropyrrolo[3,4-f]isoindole-1,3(2H,5H)-dione], the DC50 was more than 0.1 µM.

With `O=C1CCC(N2C(=O)c3cc4c(cc3C2=O)CN(C2CCC(C(=O)N3CCCC(Oc5ccc([C@@H]6c7ccc(O)cc7CC[C@@H]6c6ccccc6)cc5)C3)CC2)C4)C(=O)N1` (mixture of isomers) [E 23, Rac-2-(2,6-dioxopiperidin-3-yl)-6-(4-(3-(4-((1R,2S)-6-hydroxy-2-phenyl-1,2,3,4-tetrahydronaphthalen-1-yl)phenoxy)piperidine-1-carbonyl)cyclohexyl)-6,7-dihydropyrrolo[3,4-f]isoindole-1,3(2H,5H)-dione], the half-maximal degradation concentration (DC50) is 0.01 to 0.1 µM.

Still in this assay, the particulars now being: compounds 16 hours, Table A does not say whether T47D or MCF7, read-out: Potency (DC50).
For `COc1cc([C@H]2CC[C@H](C(=O)N3CCC(N4Cc5cc6c(cc5C4)C(=O)N(C4CCC(=O)NC4=O)C6=O)CC3)CC2)ccc1[C@@H]1c2[nH]c3ccccc3c2C[C@@H](C)N1CC(F)F` (stereo partly drawn) [E 403, 6-(1-((1R,4r)-4-(4-((1R,3R)-2-(2,2-difluoroethyl)-3-methyl-2,3,4,9-tetrahydro-1H-pyrido[3,4-b]indol-1-yl)-3-methoxyphenyl)cyclohexane-1-carbonyl)piperidin-4-yl)-2-(2,6-dioxopiperidin-3-yl)-6,7-dihydropyrrolo[3,4-f]isoindole-1,3(2H,5H)-dione], the DC50 fell in the range of 0.01 to 0.1 µM.

The record behind these values is patent US20240190880A1 (THE REGENTS OF THE UNIVERSITY OF MICHIGAN, priority 2021, published 2024).
